ChEMBL document CHEMBL1201862, “PubChem BioAssay data set” (2004)
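Method: 48-hour compound exposure of cells in 96-well plates, five concentrations, linear interpolation of endpoints. GI50 marks 50% less growth.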 Activity calls are given as the source filed them. No stated cut-off is given here; in the data, active = GI50 up to about 1.1 µM and inactive = higher.

How the values were obtained:
Experiment in all cases: DTP human tumour cell line panel, 48 h
[1] = tested on: A549
[2] = tested on: ACHN
[3] = tested on: BT-549
[4] = tested on: COLO 205
[5] = tested on: HCC 2998
[6] = tested on: HCT-116
[7] = tested on: HOP-92
[8] = tested on: K562
[9] = tested on: KM12
[10] = tested on: MCF7
[11] = tested on: NCI-H460
[12] = tested on: NCI-H522
[13] = tested on: OVCAR-3
[14] = tested on: RPMI-8226
[15] = tested on: SNB-19
[16] = tested on: SNB-75
[17] = tested on: SW-620
[18] = tested on: U-251
[19] = tested on: UACC-257
[20] = tested on: UACC-62

Cc1nc2ccc(F)cc2c(Cl)c1CCCl
GI50 [1]: 42.3 µM (inactive)
GI50 [2]: 78.7 µM (inactive)
GI50 [3]: 36.9 µM (inactive)
GI50 [4]: 20 µM (inactive)
GI50 [5]: 33.4 µM (inactive)
GI50 [6]: 26 µM (inactive)
GI50 [7]: 36 µM (inactive)
GI50 [8]: 25.8 µM (inactive)
GI50 [9]: 28.1 µM (inactive)
GI50 [10]: 43.5 µM (inactive)
GI50 [11]: 30.5 µM (inactive)
GI50 [12]: 31.5 µM (inactive)
GI50 [13]: 42.3 µM (inactive)
GI50 [14]: 42.8 µM (inactive)
GI50 [15]: 36.4 µM (inactive)
GI50 [16]: 72.6 µM (inactive)
GI50 [17]: 39.5 µM (inactive)
GI50 [18]: 30.4 µM (inactive)
GI50 [19]: 39 µM (inactive)
GI50 [20]: 27.7 µM (inactive)

COc1cc2c(/C=C3/C(=O)N(C)c4ccc(O)cc43)c(Cl)[nH]c2cc1C
GI50 [1]: 0.667 µM (active)
GI50 [2]: 0.532 µM (active)
GI50 [3]: 0.811 µM (active)
GI50 [4]: 0.414 µM (active)
GI50 [5]: 0.373 µM (active)
GI50 [6]: 0.361 µM (active)
GI50 [7]: 17.2 µM (inactive)
GI50 [8]: 0.124 µM (active)
GI50 [9]: 0.356 µM (active)
GI50 [10]: 0.502 µM (active)
GI50 [11]: 0.454 µM (active)
GI50 [12]: 0.404 µM (active)
GI50 [13]: 0.246 µM (active)
GI50 [14]: 0.35 µM (active)
GI50 [15]: 0.456 µM (active)
GI50 [16]: 0.439 µM (active)
GI50 [17]: 0.361 µM (active)
GI50 [18]: 0.402 µM (active)
GI50 [19]: 2.25 µM (inactive)
GI50 [20]: 0.281 µM (active)

CN1c2ccc(O)c(O)c2-c2cc(O)cc3c2C1CCC3 (stereo not given)
GI50 [1]: 29.9 µM (inactive)
GI50 [2]: 16.7 µM (inactive)
GI50 [3]: 17.3 µM (inactive)
GI50 [4]: 20.7 µM (inactive)
GI50 [5]: 20.5 µM (inactive)
GI50 [6]: 14.6 µM (inactive)
GI50 [7]: 13.9 µM (inactive)
GI50 [8]: 14.4 µM (inactive)
GI50 [9]: 21.4 µM (inactive)
GI50 [10]: 14.2 µM (inactive)
GI50 [11]: 23.9 µM (inactive)
GI50 [12]: 4.5 µM (inactive)
GI50 [13]: 4.55 µM (inactive)
GI50 [14]: 3.31 µM (inactive)
GI50 [15]: 63.5 µM (inactive)
GI50 [16]: 16.3 µM (inactive)
GI50 [17]: 17.5 µM (inactive)
GI50 [18]: 23.4 µM (inactive)
GI50 [19]: 19.1 µM (inactive)
GI50 [20]: 16.3 µM (inactive)

CC(C)(C)OC(=O)NC(CS(=O)(=O)O)C(=O)O (stereo not given)
GI50 [1]: > 100 µM (inactive)
GI50 [2]: > 100 µM (inactive)
GI50 [3]: > 100 µM (inactive)
GI50 [4]: > 100 µM (inactive)
GI50 [5]: > 100 µM (inactive)
GI50 [6]: > 100 µM (inactive)
GI50 [7]: > 100 µM (inactive)
GI50 [8]: > 100 µM (inactive)
GI50 [9]: > 100 µM (inactive)
GI50 [10]: > 100 µM (inactive)
GI50 [11]: > 100 µM (inactive)
GI50 [12]: > 100 µM (inactive)
GI50 [13]: > 100 µM (inactive)
GI50 [14]: > 100 µM (inactive)
GI50 [15]: > 100 µM (inactive)
GI50 [16]: > 100 µM (inactive)
GI50 [17]: > 100 µM (inactive)
GI50 [18]: > 100 µM (inactive)
GI50 [19]: > 100 µM (inactive)
GI50 [20]: > 100 µM (inactive)

COc1cnnc2c(C)c(-c3ccccc3)nn12
GI50 [1]: > 95.9 µM (inactive)
GI50 [2]: 68.9 µM (inactive)
GI50 [3]: > 100 µM (inactive)
GI50 [4]: > 100 µM (inactive)
GI50 [5]: > 100 µM (inactive)
GI50 [6]: 77.1 µM (inactive)
GI50 [7]: 59.3 µM (inactive)
GI50 [8]: > 100 µM (inactive)
GI50 [9]: > 75.2 µM (inactive)
GI50 [10]: > 100 µM (inactive)
GI50 [11]: 66.1 µM (inactive)
GI50 [12]: > 93.5 µM (inactive)
GI50 [13]: 59.2 µM (inactive)
GI50 [14]: 56.5 µM (inactive)
GI50 [15]: > 77.6 µM (inactive)
GI50 [16]: 20 µM (inactive)
GI50 [17]: > 100 µM (inactive)
GI50 [18]: > 70.3 µM (inactive)
GI50 [19]: > 90.8 µM (inactive)
GI50 [20]: 42.4 µM (inactive)

CC1(C)CN(CC(=O)O)CC(Cc2ccc(OCC(=O)O)cc2)N(CC(=O)O)CC(C)(C)SS1 (stereo not given)
GI50 [1]: > 100 µM (inactive)
GI50 [2]: > 100 µM (inactive)
GI50 [3]: > 100 µM (inactive)
GI50 [4]: > 100 µM (inactive)
GI50 [5]: > 100 µM (inactive)
GI50 [6]: > 100 µM (inactive)
GI50 [7]: > 100 µM (inactive)
GI50 [8]: > 100 µM (inactive)
GI50 [9]: > 100 µM (inactive)
GI50 [10]: > 100 µM (inactive)
GI50 [11]: > 100 µM (inactive)
GI50 [12]: > 100 µM (inactive)
GI50 [13]: > 100 µM (inactive)
GI50 [14]: > 100 µM (inactive)
GI50 [15]: > 100 µM (inactive)
GI50 [16]: > 100 µM (inactive)
GI50 [17]: > 100 µM (inactive)
GI50 [18]: > 100 µM (inactive)
GI50 [19]: > 100 µM (inactive)
GI50 [20]: > 100 µM (inactive)

COc1ccc2cc(CNCCCN3CCN(CCCNCc4ccc5cc(OC)ccc5c4)CC3)ccc2c1
GI50 [1]: 1.83 µM (inactive)
GI50 [2]: 1.8 µM (inactive)
GI50 [3]: 1.78 µM (inactive)
GI50 [4]: 1.4 µM (inactive)
GI50 [5]: 0.24 µM (active)
GI50 [6]: 1.26 µM (inactive)
GI50 [7]: 1.43 µM (inactive)
GI50 [8]: 0.198 µM (active)
GI50 [9]: 0.789 µM (active)
GI50 [10]: 1.35 µM (inactive)
GI50 [11]: 0.83 µM (active)
GI50 [12]: 2.24 µM (inactive)
GI50 [13]: 1.63 µM (inactive)
GI50 [14]: 0.276 µM (active)
GI50 [15]: 1.76 µM (inactive)
GI50 [16]: 1.62 µM (inactive)
GI50 [17]: 0.327 µM (active)
GI50 [18]: 1.75 µM (inactive)
GI50 [19]: 2.22 µM (inactive)
GI50 [20]: 0.569 µM (active)

COC(=O)[C@@]12CC[C@]1(C(=O)OC)C1C(C)=CC(=O)O[C@@]12C (stereo not given in full)
GI50 [1]: > 100 µM (inactive)
GI50 [2]: > 100 µM (inactive)
GI50 [3]: > 100 µM (inactive)
GI50 [4]: > 100 µM (inactive)
GI50 [5]: > 100 µM (inactive)
GI50 [6]: > 100 µM (inactive)
GI50 [7]: > 100 µM (inactive)
GI50 [8]: > 100 µM (inactive)
GI50 [9]: > 100 µM (inactive)
GI50 [10]: > 100 µM (inactive)
GI50 [11]: > 100 µM (inactive)
GI50 [12]: > 100 µM (inactive)
GI50 [13]: > 100 µM (inactive)
GI50 [14]: > 100 µM (inactive)
GI50 [15]: > 100 µM (inactive)
GI50 [16]: > 100 µM (inactive)
GI50 [17]: > 100 µM (inactive)
GI50 [18]: > 100 µM (inactive)
GI50 [19]: > 100 µM (inactive)
GI50 [20]: > 100 µM (inactive)
